Assay results taken from the NIST ThermoML archive (doi:10.1016/j.fluid.2010.10.028).
± gives the expanded uncertainty stated by the source.

Test: xn = mol fraction of the nth substance listed
Settings: Liquid, Vibrating tube method

In the case of `CC(C)=O` [acetone] + CCCCCCC, the mass density (397.26 K, 104690 kPa, x1 = 0.8992) is reported as 764.67 ± 1.6 kg/m3, the mass density (397.26 K, 109670 kPa, x1 = 0.4) is reported as 767.98 ± 1.6 kg/m3 and the mass density (397.26 K, 109670 kPa, x1 = 0.8992) is reported as 767.98 ± 1.6 kg/m3. It also gave a mass density (397.26 K, 114610 kPa, x1 = 0.4) of 771.16 ± 1.6 kg/m3, a mass density (397.26 K, 114610 kPa, x1 = 0.8992) of 771.16 ± 1.6 kg/m3 and a mass density (397.26 K, 119600 kPa, x1 = 0.4) of 774.27 ± 1.6 kg/m3. It also gave a mass density (397.26 K, 119600 kPa, x1 = 0.8992) of 774.27 ± 1.6 kg/m3, a mass density (397.27 K, 1520 kPa, x1 = 0.611) of 608 ± 1.2 kg/m3 and a mass density (397.27 K, 4850 kPa, x1 = 0.801) of 635.17 ± 1.2 kg/m3. The mass density (397.27 K, 4860 kPa, x1 = 0.611) was 616.98 ± 1.2 kg/m3, the mass density (397.27 K, 9850 kPa, x1 = 0.801) was 646.73 ± 1.2 kg/m3 and the mass density (397.27 K, 9870 kPa, x1 = 0.611) was 628.41 ± 1.2 kg/m3. It also gave a mass density (397.27 K, 10000 kPa, x1 = 0.4) of 660.81 ± 1.2 kg/m3, a mass density (397.27 K, 10000 kPa, x1 = 0.8992) of 660.81 ± 1.2 kg/m3 and a mass density (397.27 K, 14860 kPa, x1 = 0.801) of 656.72 ± 1.2 kg/m3. It also gave a mass density (397.27 K, 19840 kPa, x1 = 0.801) of 665.54 ± 1.3 kg/m3, a mass density (397.27 K, 19860 kPa, x1 = 0.611) of 646.79 ± 1.3 kg/m3 and a mass density (397.27 K, 24850 kPa, x1 = 0.611) of 654.54 ± 1.3 kg/m3. It also gave a mass density (397.27 K, 24870 kPa, x1 = 0.801) of 673.51 ± 1.3 kg/m3, a mass density (397.27 K, 24950 kPa, x1 = 0.4) of 687.4 ± 1.3 kg/m3 and a mass density (397.27 K, 24950 kPa, x1 = 0.8992) of 687.4 ± 1.3 kg/m3. It also gave a mass density (397.27 K, 29850 kPa, x1 = 0.611) of 661.6 ± 1.3 kg/m3, a mass density (397.27 K, 34860 kPa, x1 = 0.801) of 687.43 ± 1.3 kg/m3 and a mass density (397.27 K, 34870 kPa, x1 = 0.611) of 668.12 ± 1.3 kg/m3. For the same molecule, the mass density (397.27 K, 34940 kPa, x1 = 0.4) was 701.35 ± 1.3 kg/m3, the mass density (397.27 K, 34940 kPa, x1 = 0.8992) was 701.35 ± 1.3 kg/m3 and the mass density (397.27 K, 39870 kPa, x1 = 0.611) was 674.11 ± 1.4 kg/m3. It also gave a mass density (397.27 K, 39930 kPa, x1 = 0.4) of 707.57 ± 1.3 kg/m3, a mass density (397.27 K, 39930 kPa, x1 = 0.8992) of 707.57 ± 1.3 kg/m3 and a mass density (397.27 K, 44850 kPa, x1 = 0.801) of 699.35 ± 1.4 kg/m3. It also gave a mass density (397.27 K, 44870 kPa, x1 = 0.611) of 679.73 ± 1.4 kg/m3, a mass density (397.27 K, 49850 kPa, x1 = 0.611) of 684.97 ± 1.4 kg/m3 and a mass density (397.27 K, 49850 kPa, x1 = 0.801) of 704.77 ± 1.4 kg/m3. For the same molecule, the mass density (397.27 K, 54850 kPa, x1 = 0.611) was 689.91 ± 1.4 kg/m3, the mass density (397.27 K, 54860 kPa, x1 = 0.801) was 709.87 ± 1.4 kg/m3 and the mass density (397.27 K, 59840 kPa, x1 = 0.611) was 694.59 ± 1.4 kg/m3. For the same molecule, the mass density (397.27 K, 64820 kPa, x1 = 0.801) was 719.28 ± 1.4 kg/m3, the mass density (397.27 K, 64860 kPa, x1 = 0.4) was 733.56 ± 1.4 kg/m3 and the mass density (397.27 K, 64860 kPa, x1 = 0.8992) was 733.56 ± 1.4 kg/m3. The mass density (397.27 K, 69920 kPa, x1 = 0.611) was 703.34 ± 1.5 kg/m3, the mass density (397.27 K, 69920 kPa, x1 = 0.801) was 723.77 ± 1.4 kg/m3 and the mass density (397.27 K, 79800 kPa, x1 = 0.4) was 746.33 ± 1.5 kg/m3. It also gave a mass density (397.27 K, 79800 kPa, x1 = 0.8992) of 746.33 ± 1.5 kg/m3, a mass density (397.27 K, 79900 kPa, x1 = 0.801) of 731.97 ± 1.5 kg/m3 and a mass density (397.27 K, 79910 kPa, x1 = 0.611) of 711.27 ± 1.5 kg/m3. The mass density (397.27 K, 84880 kPa, x1 = 0.611) was 715 ± 1.6 kg/m3, the mass density (397.27 K, 84880 kPa, x1 = 0.801) was 735.83 ± 1.5 kg/m3 and the mass density (397.27 K, 89870 kPa, x1 = 0.611) was 718.57 ± 1.6 kg/m3. For the same molecule, the mass density (397.27 K, 89870 kPa, x1 = 0.801) was 739.53 ± 1.5 kg/m3, the mass density (397.27 K, 94750 kPa, x1 = 0.4) was 757.72 ± 1.5 kg/m3 and the mass density (397.27 K, 94750 kPa, x1 = 0.8992) was 757.72 ± 1.5 kg/m3. For the same molecule, the mass density (397.27 K, 94840 kPa, x1 = 0.801) was 743.11 ± 1.6 kg/m3, the mass density (397.27 K, 94850 kPa, x1 = 0.611) was 722.01 ± 1.6 kg/m3 and the mass density (397.27 K, 99720 kPa, x1 = 0.4) was 761.24 ± 1.6 kg/m3. It also gave a mass density (397.27 K, 99720 kPa, x1 = 0.8992) of 761.24 ± 1.5 kg/m3, a mass density (397.27 K, 99830 kPa, x1 = 0.611) of 725.33 ± 1.6 kg/m3 and a mass density (397.27 K, 104800 kPa, x1 = 0.611) of 728.56 ± 1.6 kg/m3. For the same molecule, the mass density (397.27 K, 104800 kPa, x1 = 0.801) was 749.91 ± 1.6 kg/m3, the mass density (397.27 K, 109770 kPa, x1 = 0.611) was 731.66 ± 1.7 kg/m3 and the mass density (397.27 K, 119830 kPa, x1 = 0.801) was 759.4 ± 1.7 kg/m3. It also gave a mass density (397.27 K, 124560 kPa, x1 = 0.4) of 777.29 ± 1.6 kg/m3, a mass density (397.27 K, 124560 kPa, x1 = 0.8992) of 777.29 ± 1.6 kg/m3 and a mass density (397.27 K, 129820 kPa, x1 = 0.4) of 780.45 ± 1.7 kg/m3. For the same molecule, the mass density (397.27 K, 129820 kPa, x1 = 0.8992) was 780.45 ± 1.6 kg/m3, the mass density (397.27 K, 129840 kPa, x1 = 0.801) was 765.29 ± 1.7 kg/m3 and the mass density (397.28 K, 1470 kPa, x1 = 0.7024) was 615.75 ± 1.2 kg/m3. It also gave a mass density (397.28 K, 1500 kPa, x1 = 0.492) of 600.98 ± 1.2 kg/m3, a mass density (397.28 K, 4850 kPa, x1 = 0.7024) of 624.89 ± 1.2 kg/m3 and a mass density (397.28 K, 4860 kPa, x1 = 0.492) of 609.77 ± 1.2 kg/m3. The mass density (397.28 K, 9830 kPa, x1 = 0.7024) was 636.41 ± 1.2 kg/m3, the mass density (397.28 K, 9850 kPa, x1 = 0.492) was 620.92 ± 1.2 kg/m3 and the mass density (397.28 K, 14840 kPa, x1 = 0.7024) was 646.37 ± 1.2 kg/m3. It also gave a mass density (397.28 K, 14860 kPa, x1 = 0.492) of 630.52 ± 1.2 kg/m3, a mass density (397.28 K, 19840 kPa, x1 = 0.7024) of 655.11 ± 1.3 kg/m3 and a mass density (397.28 K, 24820 kPa, x1 = 0.7024) of 662.95 ± 1.3 kg/m3. The mass density (397.28 K, 29820 kPa, x1 = 0.7024) was 670.12 ± 1.3 kg/m3, the mass density (397.28 K, 29840 kPa, x1 = 0.492) was 653.43 ± 1.3 kg/m3 and the mass density (397.28 K, 29860 kPa, x1 = 0.801) was 680.72 ± 1.3 kg/m3. For the same molecule, the mass density (397.28 K, 34830 kPa, x1 = 0.7024) was 676.7 ± 1.3 kg/m3, the mass density (397.28 K, 34860 kPa, x1 = 0.492) was 659.77 ± 1.3 kg/m3 and the mass density (397.28 K, 39840 kPa, x1 = 0.7024) was 682.81 ± 1.3 kg/m3. For the same molecule, the mass density (397.28 K, 39850 kPa, x1 = 0.801) was 693.57 ± 1.3 kg/m3, the mass density (397.28 K, 44820 kPa, x1 = 0.7024) was 688.48 ± 1.4 kg/m3 and the mass density (397.28 K, 44860 kPa, x1 = 0.492) was 671.15 ± 1.4 kg/m3. The mass density (397.28 K, 49810 kPa, x1 = 0.7024) was 693.79 ± 1.4 kg/m3, the mass density (397.28 K, 54840 kPa, x1 = 0.492) was 681.14 ± 1.4 kg/m3 and the mass density (397.28 K, 54910 kPa, x1 = 0.7024) was 698.93 ± 1.4 kg/m3. It also gave a mass density (397.28 K, 59840 kPa, x1 = 0.492) of 685.74 ± 1.4 kg/m3, a mass density (397.28 K, 59850 kPa, x1 = 0.801) of 714.7 ± 1.4 kg/m3 and a mass density (397.28 K, 59860 kPa, x1 = 0.7024) of 703.65 ± 1.4 kg/m3. It also gave a mass density (397.28 K, 64820 kPa, x1 = 0.492) of 690.08 ± 1.5 kg/m3.
